Experiment: Solubility of added 5% CHG in commercial detergent compositions
Assay type: physicochemical

N=C(NCCCCCCNC(=N)NC(=N)Nc1ccc(Cl)cc1)NC(=N)Nc1ccc(Cl)cc1.O=C(O)[C@H](O)[C@@H](O)[C@H](O)[C@H](O)CO.O=C(O)[C@H](O)[C@@H](O)[C@H](O)[C@H](O)CO [CHG, chlorhexidine gluconate]
insoluble: Solubility of CHG in detergent composition C2 (5% CHG added to C2) | Solubility of CHG in detergent composition C3 (5% CHG added to C3) | Solubility of CHG in detergent composition C6 (5% CHG added to C6)

From patent US20210395653A1, “COMPOSITIONS FOR TREATMENT AND METHODS FOR MAKING AND USING THE SAME” (ASP Global Manufacturing GmbH, priority 2018, published 2021)
